# According to US20160158200A1, “Combinations of Hepatitis C Virus Inhibitors” (priority 2013, published 2016):
# System: HCV genotype-1a variant with glutamine 30 changed to glutamate in the NS5A protein
# Format: cell-based
# Conditions: test compound titrated with BMS-790052 fixed at 200 nM; genotype 1a Q30E replicon
# Procedure, shortened: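 Synergy was assessed by combining several fixed amounts of an NS5A-targeting compound with a titration of the second compound of interest.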
row,Compound,Fold-Synergistic 1a (Q30E)
1,CC(C)(C)[C@H](NC(=O)C12CCC(CC1)C2)c1nc(-c2ccc(-c3ccc(-c4c[nH]c([C@@H](NC(=O)C56CCC(CC5)C6)C(C)(C)C)n4)cc3)cc2)c[nH]1 [Compound S-261],>100 fold
2,COC(=O)N[C@@H](C(=O)N[C@H](c1nc(-c2ccc(-c3ccc(-c4c[nH]c([C@@H](NC(=O)[C@H](NC(=O)OC)C(C)C)C(C)(C)C)n4)cc3)cc2)c[nH]1)C(C)(C)C)C(C)C [Compound N-28],>100 fold
3,CC(C)OC(C)(C)C(=O)N[C@H](c1nc(-c2ccc(-c3ccc(-c4c[nH]c([C@@H](NC(=O)C(C)(C)OC(C)C)C(C)(C)C)n4)cc3)cc2)c[nH]1)C(C)(C)C [Compound Y-1],>100 fold
4,COC(=O)NC(C(=O)N1CCCC1c1ncc(-c2ccc(-c3ccc(-c4cnc(C(NC(=O)C(C)(C)C)C(C)(C)C)[nH]4)cc3)cc2)[nH]1)C(C)C (centres unmarked) [Compound B-195],>10 fold
5,COC1(C(=O)C(=O)N[C@H](c2ncc(-c3ccc(-c4ccc(-c5cnc([C@@H](NC(=O)C(=O)C6(OC)CC6)C(C)C)[nH]5)cc4)cc3)[nH]2)C(C)C)CC1 [Compound P-123],>100 fold
6,CC(C)(CF)C(=O)N[C@H](c1nc(-c2ccc(-c3ccc(-c4c[nH]c([C@@H](NC(=O)C(C)(C)CF)C(C)(C)C)n4)cc3)cc2)c[nH]1)C(C)(C)C [Compound P-19],>100 fold
7,CC(C)(OCCF)C(=O)N[C@H](c1nc(-c2ccc(-c3ccc(-c4c[nH]c([C@@H](NC(=O)C(C)(C)OCCF)C(C)(C)C)n4)cc3)cc2)c[nH]1)C(C)(C)C [Compound Y-3],>100 fold
8,CC1([C@H](NC(=O)C(C)(C)C(C)(C)O)c2ncc(-c3ccc(-c4ccc(-c5cnc([C@@H](NC(=O)C(C)(C)C(C)(C)O)C6(C)CC6)[nH]5)cc4)cc3)[nH]2)CC1 [Compound B148],>100 fold
9,CC(C)(C)OC(=O)NC1(C(=O)N[C@H](c2nc(-c3ccc(-c4ccc(-c5c[nH]c([C@@H](NC(=O)C6(NC(=O)OC(C)(C)C)CCC6)C(C)(C)C)n5)cc4)cc3)c[nH]2)C(C)(C)C)CCC1.O=C(O)C(F)(F)F.O=C(O)C(F)(F)F [Compound L-5],>100 fold
10,Cc1cc(-c2ccc(-c3c[nH]c([C@@H](NC(=O)C4CCC(F)(F)CC4)C(C)C)n3)cc2)ccc1-c1c[nH]c([C@@H](NC(=O)C2CCC(F)(F)CC2)C(C)C)n1.O=C(O)C(F)(F)F [Compound N-82],>100 fold
11,"CC1(C(=O)N[C@H](c2nc(-c3ccc(-c4ccc(-c5c[nH]c([C@@H](NC(=O)C6(C)CCCCC6O)C(C)(C)C)n5)cc4)cc3)c[nH]2)C(C)(C)C)CCCCC1O (single isomer, unassigned) [Compound Y-93]",>100 fold
12,CC(C)(C)[C@H](NC(=O)Cc1noc2ccccc12)c1nc(-c2ccc(-c3ccc(-c4c[nH]c([C@@H](NC(=O)Cc5noc6ccccc56)C(C)(C)C)n4)cc3)cc2)c[nH]1 [Compound P-16],>100 fold
13,CC(C)(C)[C@H](NC(=O)C1CC2CCC(C1)C2(F)F)c1nc(-c2ccc(-c3ccc(-c4c[nH]c([C@@H](NC(=O)C5CC6CCC(C5)C6(F)F)C(C)(C)C)n4)cc3)cc2)c[nH]1 (some centres unmarked) [Compound P-44],>100 fold
14,Cc1onc(-c2ccccc2)c1C(=O)N[C@H](c1ncc(-c2ccc(-c3ccc(-c4cnc([C@@H](NC(=O)c5c(-c6ccccc6)noc5C)C(C)C)[nH]4)cc3)cc2)[nH]1)C(C)C [Compound S-85],>100 fold
15,CC(C)[C@H](NC(=O)C(C)(C)C)c1ncc(-c2ccc3cc4cc(-c5cnc([C@@H](NC(=O)C(C)(C)C)C(C)C)[nH]5)ccc4cc3c2)[nH]1.O=C(O)C(F)(F)F [Compound B30],>100 fold
16,O=C(c1cc2ccccc2[nH]1)N1CCC[C@H]1c1ncc(-c2ccc(-c3ccc(-c4cnc([C@@H]5CCCN5C(=O)c5cc6ccccc6[nH]5)[nH]4)cc3)cc2)[nH]1 [Compound S-120],<10 fold
17,CC(C)(C)[C@H](NC(=O)C1(C(=O)O)CCCCC1)c1nc(-c2ccc(-c3ccc(-c4c[nH]c([C@@H](NC(=O)C5(C(=O)O)CCCCC5)C(C)(C)C)n4)cc3)cc2)c[nH]1 [Compound N-147],>100 fold
18,C[C@H]1CCN(C(=O)C(=O)N2C(C)(C)CCCC2(C)C)C1c1nc(-c2ccc(-c3ccc(-c4c[nH]c(C5[C@@H](C)CCN5C(=O)C(=O)N5C(C)(C)CCCC5(C)C)n4)cc3)cc2)c[nH]1 (some centres unmarked) [Compound W-249],>100 fold
19,CC(C)[C@H](NC(=O)c1cccs1)c1ncc(-c2ccc(-c3ccc(-c4cnc([C@@H](NC(=O)c5cccs5)C(C)C)[nH]4)cc3)cc2)[nH]1 [Compound S-14],>100 fold
20,COC(=O)NC(C(=O)NC(c1nc(-c2ccc(-c3ccc(-c4cn(C)c(C(NC(=O)C(NC(=O)OC)C(C)C)C(C)C)n4)cc3)cc2)cn1C)C(C)C)C(C)C.O=C(O)C(F)(F)F.O=C(O)C(F)(F)F (centres unmarked) [Compound Y-17],>10 fold
21,CC(C)(C)C(NC(=O)C1CC12CCC(F)(F)CC2)c1nc(-c2ccc(-c3ccc(-c4c[nH]c(C(NC(=O)C5CC56CCC(F)(F)CC6)C(C)(C)C)n4)cc3)cc2)c[nH]1 (mixture of isomers) [Compound Y-70],>100 fold

row,Compound,Fold-Synergistic 1a (Q30E)
1,CC(C)(C)[C@H](NC(=O)C12CCC(CC1)N2)c1nc(-c2ccc(-c3ccc(-c4c[nH]c([C@@H](NC(=O)C56CCC(CC5)N6)C(C)(C)C)n4)cc3)cc2)c[nH]1.Cl.Cl.Cl.Cl [Compound W-92],>10 fold
2,CC(C)[C@H](NC(=O)c1ccc(Cl)s1)c1ncc(-c2ccc(-c3ccc(-c4cnc([C@@H](NC(=O)c5ccc(Cl)s5)C(C)(C)C)[nH]4)cc3)cc2)[nH]1 [Compound Y-44],>100 fold
3,CC(C)(C)[C@H](NC(=O)C1CCOCC1)c1nc(-c2ccc(-c3ccc(-c4c[nH]c([C@@H](NC(=O)C5CCOCC5)C(C)(C)C)n4)cc3)cc2)c[nH]1 [Compound W-123],>100 fold
4,CC(C)(C)[C@H](NC(=O)C1CCC(F)(F)CC1)c1ncc(-c2ccc(C#Cc3ccc4nc([C@@H](NC(=O)C5CCC(F)(F)CC5)C(C)(C)C)[nH]c4c3)cc2)[nH]1 [Compound B45],>100 fold
5,CC1(C(=O)N[C@H](c2nc(-c3ccc(-c4ccc(-c5c[nH]c([C@@H](NC(=O)C6(C)CC6)C(C)(C)C)n5)cc4)cc3)c[nH]2)C(C)(C)C)CC1 [Compound L-45],>100 fold
6,CC(C)(C)[C@H](NC(=O)C(=O)N1CCOCC1)c1nc(-c2ccc(-c3ccc(-c4c[nH]c([C@@H](NC(=O)C(=O)N5CCOCC5)C(C)(C)C)n4)cc3)cc2)c[nH]1 [Compound W-25],>100 fold
7,COC(=O)NC(C(=O)N1CCCC1c1ncc(-c2ccc(-c3ccc(-c4cnc(C(NC(=O)C5(C)CCC(F)(F)CO5)C(C)(C)C)[nH]4)cc3)cc2)[nH]1)C(C)C (centres unmarked) [Compound B-193],>10 fold
8,"CC(C)(C)C(NC(=O)C(C)(O)C(F)(F)F)c1nc(-c2ccc(-c3ccc(-c4c[nH]c(C(NC(=O)C(C)(O)C(F)(F)F)C(C)(C)C)n4)cc3)cc2)c[nH]1.O=C(O)C(F)(F)F.O=C(O)C(F)(F)F (single isomer, unassigned) [Compound L-66b]",>100 fold
9,CC(C)(C)[C@H](NC(=O)C1CCN(S(C)(=O)=O)CC1)c1nc(-c2ccc(-c3ccc(-c4c[nH]c([C@@H](NC(=O)C5CCN(S(C)(=O)=O)CC5)C(C)(C)C)n4)cc3)cc2)c[nH]1 [Compound S-255],>100 fold
10,CCC(=O)NC1(C(=O)N[C@H](c2nc(-c3ccc(-c4ccc(-c5c[nH]c([C@@H](NC(=O)C6(NC(=O)CC)CCCCC6)C(C)(C)C)n5)cc4)cc3)c[nH]2)C(C)(C)C)CCCCC1 [Compound W-265],>100 fold
11,CC(C)[C@H](NC(=O)c1ccc(C#N)s1)c1ncc(-c2ccc(-c3ccc(-c4cnc([C@@H](NC(=O)c5ccc(C#N)s5)C(C)(C)C)[nH]4)cc3)cc2)[nH]1 [Compound Y-45],>100 fold
12,COc1ccc(CNC(C)(C)C(=O)N[C@H](c2nc(-c3ccc(-c4ccc(-c5c[nH]c([C@@H](NC(=O)C(C)(C)NCc6ccc(OC)cc6)C(C)(C)C)n5)cc4)cc3)c[nH]2)C(C)(C)C)cc1 [Compound S-267],>100 fold
13,CC(C)C(NC(=O)C1C2CC2CN1C(=O)OC(C)(C)C)c1nc(-c2ccc(-c3ccc(-c4c[nH]c(C(NC(=O)C5C6CC6CN5C(=O)OC(C)(C)C)C(C)C)n4)cc3)cc2)c[nH]1 (centres unmarked) [Compound W-74],>100 fold
14,"COC(CO)(CC(C)C)C(=O)N[C@H](c1nc(-c2ccc(-c3ccc(-c4c[nH]c([C@@H](NC(=O)C(CO)(CC(C)C)OC)C(C)(C)C)n4)cc3)cc2)c[nH]1)C(C)(C)C (single isomer, unassigned) [Compound N-160A]",>100 fold
15,CC(C)(NC(=O)OCCF)C(=O)N[C@H](c1nc(-c2ccc(-c3ccc(-c4c[nH]c([C@@H](NC(=O)C(C)(C)NC(=O)OCCF)C(C)(C)C)n4)cc3)cc2)c[nH]1)C(C)(C)C [Compound Q-4],>100 fold
16,Cc1ccoc1C(=O)N[C@H](c1ncc(-c2ccc(-c3ccc(-c4cnc([C@@H](NC(=O)c5occc5C)C(C)C)[nH]4)cc3)cc2)[nH]1)C(C)C [Compound S-90],>100 fold
17,COC1(C(=O)N[C@H](c2nc(-c3ccc(-c4ccc(-c5c[nH]c([C@@H](NC(=O)C6(OC)CCC6)C(C)(C)C)n5)cc4)cc3)c[nH]2)C(C)(C)C)CCC1 [Compound P-21],>100 fold
18,CC(C)[C@H](NC(=O)C1(C)COC1)c1ncc(-c2ccc(-c3ccc(-c4cnc([C@@H](NC(=O)C5(C)COC5)C(C)C)[nH]4)cc3)cc2)[nH]1 [Compound P-84],>100 fold
19,O=C(C(=O)N1C(c2nc(-c3ccc(-c4ccc(-c5c[nH]c(C6CC7C[C@@H]7N6C(=O)C(=O)N6CCC(F)(F)CC6)n5)cc4)cc3)c[nH]2)C[C@@H]2CC21)N1CCC(F)(F)CC1 (some centres unmarked) [Compound W-243],>100 fold
20,CC(C)[C@H](NC(=O)c1ccccc1Cl)c1ncc(-c2ccc(-c3ccc(-c4cnc([C@@H](NC(=O)c5ccccc5Cl)C(C)C)[nH]4)cc3)cc2)[nH]1 [Compound S-65],>100 fold
